Measured values from patent US11964052B2, “Lipid compounds and lipid nanoparticle compositions” (SUZHOU ABOGEN BIOSCIENCES CO., LTD., priority 2021, dated 2024).

Columns and labels:
Type in all cases: physicochemical
[1] = Lipid nanoparticle size and polydispersity by dynamic light scattering (Malvern Zetasizer Nano ZS); conditions: LNP of cationic lipid/DSPC/cholesterol/PEG-lipid 50:10:38.5:1.5 with mRNA
Procedure: (§1) Briefly, a cationic lipid provided herein, DSPC, cholesterol, and PEG-lipid were solubilized in ethanol at a molar ratio of 50:10:38.5:1.5, and mRNA were diluted in 10 to 50 mM citrate buffer, pH=4. The LNPs were prepared at a total lipid to mRNA weight ratio of approximately 10:1 to 30:1 by mixing the ethanolic lipid solution with the aqueous mRNA solution at a volume ratio of 1:3 using a microfluidic apparatus, total flow rate ranging from 9-30 mL/min. Ethanol were thereby removed and replaced by DPBS using dialysis. Finally, the lipid nanoparticles were filtered through a 0.2 μm sterile filter.
(§2) Lipid nanoparticle size were determined by dynamic light scattering using a Malvern Zetasizer Nano ZS (Malvern UK) using a 173° backscatter detection mode. The encapsulation efficiency of lipid nanoparticles were determined using a Quant-it Ribogreen RNA quantification assay kit (Thermo Fisher Scientific, UK) according to the manufacturer's instructions.

[2] = Encapsulation efficiency of lipid nanoparticles, Quant-it Ribogreen RNA quantification assay; conditions: LNP with mRNA
Procedure: as §1, §2

[3] = Apparent pKa of LNP formulations, TNS fluorescence assay; conditions: LNP cationic lipid/DSPC/cholesterol/DMG-PEG 50/10/38.5/1.5 mol %, pH 3 to 9
Procedure: As reported in literature, the apparent pKa of LNP formulations correlates with the delivery efficiency of LNPs for nucleic acids in vivo. The apparent pKa of each formulation was determined using an assay based on fluorescence of 2-(p-toluidino)-6-napthalene sulfonic acid (TNS). LNP formulations comprising of cationic lipid/DSPC/cholesterol/DMG-PEG (50/10/38.5/1.5 mol %) in PBS were prepared as described above. TNS was prepared as a 300 uM stock solution in distilled water. LNP formulations were diluted to 0.1 mg/ml total lipid in 3 mL of buffered solutions containing 50 mM sodium citrate, 50 mM sodium phosphate, 50 mM sodium borate, and 30 mM sodium chloride where the pH ranged from 3 to 9. An aliquot of the TNS solution was added to give a final concentration of 0.1 mg/ml and following vortex mixing fluorescence intensity was measured at room temperature in a Molecular Devices Spectramax iD3 spectrometer using excitation and mission wavelengths of 325 nm and 435 nm. A sigmoidal best fit analysis was applied to the fluorescence data and the pKa value was measured as the pH giving rise to half-maximal fluorescent intensity.

Row | Compound | polydispersity [1] | size (nm) [1] [nm] | Encapsulation Efficiency [2] [%] | Apparant Pka [3]
1 | CCCCCCCCCCCCOCC(CN(CCCCCC(=O)OCC(CCCCCC)CCCCCCCC)CCN(CCO)C1CCCCC1)OCCCCCCCCCCCC (stereo not drawn) [Compound 30] | 0.107 | 49.64 | 92.7 | 5.409
2 | CCCCCCCCCCCCOCC(O)CN(CCCCCC(=O)OCC(CCCCCC)CCCCCCCC)CCN1CCCCC1 (stereo not drawn) [Compound 8] | 0.156 | 102.9 | 88.2 | 7.327
3 | CCCCCCCCCOC(=O)CCOCC(CN(C)CCN(CCO)C1CCC1)OCCC(=O)OCCCCCCCCC (stereo not drawn) [Compound 43] | 0.362 | 138.6 | 78.4 | 7.227
4 | CCCCCCC(CCCCCC)COC(=O)CCCCCN(CCN1CCC(O)C1)CC(COC(=O)CCCCC)OC(=O)CCCCC (stereo not drawn) [Compound 63] | 0.076 | 150.2 | 95.9 | 6.928
5 | CCCCCCCCCCCCOCC(CN(CCO)C1CCC1)OC(=O)CCCCCCCCCCC (stereo not drawn) [Compound 2] | 0.094 | 69.05 | 94.5 | 5.177
6 | CCCCCCCCCCCCOCC(CN(CCCCCC(=O)OCCCCCCCCCC)CCN(CCO)C1CCC1)OCCCCCC (stereo not drawn) [Compound 49] | 0.031 | 99.66 | 83.7 | 6.221
7 | CCCCCCCCCCCCOCC(CN(C)CCN(CCO)C1CCC1)OC(=O)CCCCC (stereo not drawn) [Compound 44] | 0.178 | 112.8 | 85.2 | 6.65
8 | CCCCCCCCCCCCOCC(CN(CCO)CCCCCC(=O)OCC(CCCCCC)CCCCCCCC)OC(C)=O (stereo not drawn) [Compound 18] | 0.17 | 65.06 | 90.6 | 4.916
9 | CCCCCCCCCCCCOCC(CN(CCCCCC(=O)OCC(CCCCCC)CCCCCCCC)CCN(CCO)C1CCCCCC1)OCCCCCCCC (stereo not drawn) [Compound 37] | 0.156 | 51.77 | 92.70 | 5.726
10 | CCCCCCCCC(CCCCCCCC)CNC(=O)CCOCC(CN(C)CCO)OCCC(=O)NCC(CCCCCCCC)CCCCCCCC (stereo not drawn) [Compound 50] | 0.099 | 58.14 | 90.4 | 8.298
11 | CCCCCCCCCCCCOCC(O)CN(CCO)CCCCCC(=O)OCC(CCCCCC)CCCCCCCC (stereo not drawn) [Compound 13] | 0.128 | 61.3 | 94.2 | 7.089
12 | CCCCCCCCCCCCOCC(CN(CCCCCC(=O)OCC(CCCCCC)CCCCCCCC)CCN1CCCCC1)OC(=O)CCCCC (stereo not drawn) [Compound 15] | 0.139 | 62.11 | 93.5 | 5.875
13 | CCCCCCCCCCCCOCC(CN(CCO)C1CCC1)OCCCCCC(=O)OCC(CCCCCC)CCCCCCCC (stereo not drawn) [Compound 4] | 0.2 | 54.52 | 94.6 | 5.083
14 | CCCCCCCCCCCCOCC(CN(CCO)CCCCCC(=O)OCC(CCCCCC)CCCCCCCC)OC(=O)CC (stereo not drawn) [Compound 19] | 0.156 | 117.5 | 88.5 | 4.957
15 | CCCCCCCCCCCCOCC(CN(CCCCCC(=O)OCC(CCCCCC)CCCCCCCC)CCN(CCO)C1CCCCCC1)OCCCCCC (stereo not drawn) [Compound 26] | 0.153 | 55.8 | 93.30 | 5.696
16 | CCCCCCCCCCCCOCC(CN(CCCCCC(=O)OCC(CCCCCC)CCCCCCCC)CCN(CCO)C1CCCC1)OCCCCCCCC (stereo not drawn) [Compound 35] | 0.1 | 56.71 | 96.80 | 5.940
17 | CCCCCCCCCCCCOCC(CN(CCO)CCCCCC(=O)OCC(CCCCCC)CCCCCCCC)OC(=O)CCCCC (stereo not drawn) [Compound 14] | 0.4 | 56.31 | 86.1 | 4.536
18 | CCCCCCCCCCCCOCC(CN(C)CCN(CCO)C1CCCCC1)OCCCCCCCCCCCC (stereo not drawn) [Compound 6] | 0.241 | 126.4 | 93.4 | 7.035
19 | CCCCCCCCCCCCOCC(CN(CCCCCCCCCCCC)CCN(CCO)C1CCC1)OCCCCCCCCCCCC (stereo not drawn) [Compound 17] | 0.186 | 79.43 | 92.8 | 5.835
20 | CCCCC/C=C\C/C=C\CCCCCCCC(=O)OCC(CCCCN(CCO)C1CCCCCCC1)COC(=O)CC(CCCCCC)CCCCCCCC (stereo not drawn) [Compound 101] | 0.111 | 59.51 | 92.79 | 6.488

Second part, the molecule after the results:

Row | polydispersity [1] | size (nm) [1] [nm] | Encapsulation Efficiency [2] [%] | Apparant Pka [3] | Compound
21 | 0.077 | 76.45 | 94.62 | 6.727 | CCCCCCCCC(CCCCCCCC)COC(=O)CCOCC(CN(C)CCN(CCO)C1CCCC1)OCCC(=O)OCC(CCCCCCCC)CCCCCCCC (stereo not drawn) [Compound 71]
22 | 0.232 | 59.1 | 44.6 | 3.519 | CCCCCCCCC(CCCCCC)CC(=O)OCC(CN(CCO)C1CCC1)OC(=O)CC(CCCCCC)CCCCCCCC (stereo not drawn) [Compound 32]
23 | 0.048 | 62.77 | 92.54 | 6.072 | CCCCCCCCC(CCCCCC)CC(=O)OCC(CCCCN(CCN(CCO)CCCCCC)C1CCC1)COC(=O)CC(CCCCCC)CCCCCCCC (stereo not drawn) [Compound 111]
24 | 0.034 | 75.43 | 89.5 | 6.851 | CCCCCCCCC(CCCCCCCC)COC(=O)CCOCC(CN(C)CCN(CCO)C1CCC1)OCCC(=O)OCC(CCCCCCCC)CCCCCCCC (stereo not drawn) [Compound 55]
25 | 0.049 | 78.45 | 93.32 | 6.351 | CCCCCCCCC(CCCCCCCC)COC(=O)CCOCC(CN(C)CCN(CCO)C1CC1)OCCC(=O)OCC(CCCCCCCC)CCCCCCCC (stereo not drawn) [Compound 70]
26 | 0.046 | 65.31 | 93.17 | 6.035 | CCCCCCCCC(CCCCCC)COC(=O)CCOCC(CN(CCC)CCN(CCO)C1CCCCCC1)OCCC(=O)OCC(CCCCCC)CCCCCCCC (stereo not drawn) [Compound 106]
27 | 0.044 | 72.85 | 96.6 | 6.749 | CCCCCCCCC(CCCCCCCC)CC(=O)OCC(CCCCN(C)CCN(CCO)C1CCC1)COC(=O)CC(CCCCCCCC)CCCCCCCC [Compound 66]
28 | 0.046 | 56.88 | 89.92 | 6.439 | CCCCCCCCC(CCCCCC)CC(=O)OCC(CCCCN(CC=C(C)C)CCO)COC(=O)CC(CCCCCC)CCCCCCCC (stereo not drawn) [Compound 77]
29 | 0.025 | 77.25 | 94.14 | 7.059 | CCCCCCCCCCCCCCCC(=O)OCC(CCCCN(CCO)C1CCCC1)COC(=O)CC(CCCCCC)CCCCCCCC (stereo not drawn) [Compound 99]
30 | 0.116 | 130.6 | 91.83 | 6.444 | CCCCCCCCC(CCCCCCCC)CC(=O)OCC(CCCCN(CC)CCN(CCO)C1CCC1)COC(=O)CC(CCCCCCCC)CCCCCCCC [Compound 67]
31 | 0.068 | 73.31 | 92.6 | 6.985 | CCCCCCCCC(CCCCCCCC)CC(=O)OCC(CCCCN(CCO)C1CCC1)COC(=O)CCCCC (stereo not drawn) [Compound 60]
32 | 0.111 | 63.32 | 85.30 | 6.377 | CCCCCCCCCCC(=O)OCC(CCCCN(CCO)C1CCCCCCC1)COC(=O)CC(CCCCCC)CCCCCCCC (stereo not drawn) [Compound 93]
33 | 0.038 | 75.71 | 92.71 | 6.147 | CCCCCCCCC(CCCCCC)CC(=O)OCC(CCCCN(CCN(CCO)CCCCC)C1CCC1)COC(=O)CC(CCCCCC)CCCCCCCC (stereo not drawn) [Compound 110]
